Data published in US10695342B2, “Methods and compositions for preventing opioid abuse” (Albany Molecular Research, Inc., priority 2015, dated 2020).
“And” between values parts separate entries of the source, which are not always exact repeats. Equal values may be shown once. Where a name gives a salt, the structure may show the parent alone.

Columns and labels:
[1] = Oral gavage pharmacokinetics in rats, plasma oxycodone by LC-MS/MS; settings: 0.89 mg/kg oral, rat; for Plasma Concentration (oxycodone), Mean: mean of the N quantifiable subjects
[2] = Oral gavage pharmacokinetics in rats, plasma oxymorphone by LC-MS/MS; settings: for concentration at 0.25 h / concentration at 0.5 h / concentration at 1 h / concentration at 2 h / concentration at 3 h / concentration at 4 h / concentration at 6 h: oral, Plasma oxymorphone
[3] = Dissolution of test article in dosing formulation; settings: Ex No. B1a, 6.72 mg/kg group, 0.5% methylcellulose vehicle, equivalent to 2 mg/mL oxymorphone HCl
[4] = 1.77 mg/kg Oxymorphone HCl oral, rat, hydrochloride

## COc1ccc2c3c1O[C@H]1C(OC(=O)C[C@H](OC(=O)C[C@H](O)C(=O)O)C(=O)O)=CC[C@@]4(O)[C@@H](C2)N(C)CC[C@]314 [Oxycodone Dimalate, (S)-4-((S)-1-Carboxy-3-(((4R,4aS,7aR,12bS)-4a-hydroxy-9-methoxy-3-methyl-2,3,4,4a,5,7a-hexahydro-1H-4,12-methanobenzofuro[3,2-e]isoquinolin-7-yl)oxy)-3-oxopropoxy)-2-hydroxy-4-oxobutanoic acid trifluoroacetic acid salt]
[1]; 0.25 h
  Plasma Concentration (oxycodone) by Subject: BLQ
  Plasma Concentration (oxycodone), Mean: BLQ
[1]; 0.5 h
  Plasma Concentration (oxycodone) by Subject: BLQ
  Plasma Concentration (oxycodone), Mean: BLQ
[1]; 2 h
  Plasma Concentration (oxycodone) by Subject: BLQ
  Plasma Concentration (oxycodone), Mean: BLQ
[1]; 3 h
  Plasma Concentration (oxycodone) by Subject: BLQ
  Plasma Concentration (oxycodone), Mean: BLQ
[1]; 4 h
  Plasma Concentration (oxycodone) by Subject: BLQ
  Plasma Concentration (oxycodone), Mean: BLQ
[1]; 6 h
  Plasma Concentration (oxycodone) by Subject: BLQ
  Plasma Concentration (oxycodone), Mean: BLQ

## COc1ccc2c3c1O[C@H]1C(=O)CC[C@@]4(O)[C@@H](C2)N(C)CC[C@]314.Cl [Oxycodone HCl, oxycodone HCl]
[1]; 2 h
  Plasma Concentration (oxycodone) by Subject: BLQ
  Plasma Concentration (oxycodone), Mean: BLQ
[1]; 3 h
  Plasma Concentration (oxycodone) by Subject: BLQ
  Plasma Concentration (oxycodone), Mean: BLQ
[1]; 4 h
  Plasma Concentration (oxycodone) by Subject: BLQ
  Plasma Concentration (oxycodone), Mean: BLQ
[1]; 6 h
  Plasma Concentration (oxycodone) by Subject: BLQ
  Plasma Concentration (oxycodone), Mean: BLQ

## COc1ccc2c3c1O[C@H]1C(OC(=O)[C@H](C)O)=CC[C@@]4(O)[C@@H](C2)N(C)CC[C@]314 [Oxycodone Lactate, (S)-(4R,4aS,7aR,12bS)-4a-Hydroxy-9-methoxy-3-methyl-2,3,4,4a,5,7a-hexahydro-1H-4,12-methanobenzofuro[3,2-e]isoquinolin-7-yl 2-hydroxypropanoate trifluoroacetic acid salt]
[1]; 6 h
  Plasma Concentration (oxycodone) by Subject: BLQ
  Plasma Concentration (oxycodone), Mean: BLQ

## COc1ccc2c3c1O[C@H]1C(OC(=O)C[C@H](O)C(=O)O)=CC[C@@]4(O)[C@@H](C2)N(C)CC[C@]314.Cl [Oxycodone Malate, (S)-2-Hydroxy-4-(((4R,4aS,7aR,12bS)-4a-hydroxy-9-methoxy-3-methyl-2,3,4,4a,5,7a-hexahydro-1H-4,12-methanobenzofuro[3,2-e]isoquinolin-7-yl)oxy)-4-oxobutanoic acid hydrochloride]
[1]; 6 h
  Plasma Concentration (oxycodone) by Subject: BLQ
  Plasma Concentration (oxycodone), Mean: BLQ

## COc1ccc2c3c1O[C@H]1C(OC(=O)[C@H](O)c4ccccc4)=CC[C@@]4(O)[C@@H](C2)N(C)CC[C@]314 [Oxycodone Mandelate, (R)-(4R,4aS,7aR,12bS)-4a-Hydroxy-9-methoxy-3-methyl-2,3,4,4a,5,7a-hexahydro-1H-4,12-methanobenzofuro[3,2-e]isoquinolin-7-yl 2-hydroxy-2-phenylacetate trifluoroacetic acid salt]
[1]; 4 h
  Plasma Concentration (oxycodone) by Subject: BLQ
  Plasma Concentration (oxycodone), Mean: BLQ
[1]; 6 h
  Plasma Concentration (oxycodone) by Subject: BLQ
  Plasma Concentration (oxycodone), Mean: BLQ

## CCCCCCCC/C=C\CCCCCCCC(=O)OC1=CC[C@@]2(O)[C@H]3Cc4ccc(OC)c5c4[C@@]2(CCN3C)[C@H]1O5.Cl [Oxycodone Oleate, (4R,4aS,7aR,12bS)-4a-Hydroxy-9-methoxy-3-methyl-2,3,4,4a,5,7a-hexahydro-1H-4,12-methanobenzofuro[3,2-e]isoquinolin-7-yl oleate hydrochloride]
[1]; 4 h
  Plasma Concentration (oxycodone) by Subject: BLQ
  Plasma Concentration (oxycodone), Mean: BLQ

## CN1CC[C@]23c4c5ccc(O)c4O[C@H]2C(=O)CC[C@@]3(O)[C@H]1C5 [Oxymorphone HCl, oxymorphone hydrochloride]
[2]; 1.77 mg/kg Oxymorphone HCl oral, rat, 0.25 h, hydrochloride
  Plasma oxymorphone, individual rats: 0.379 ng/mL and 0.862 ng/mL and 1.144 ng/mL
[2]; 1.77 mg/kg Oxymorphone HCl oral, rat, 0.5 h, hydrochloride
  Plasma oxymorphone, individual rats: 0.343 ng/mL and 0.925 ng/mL and 0.799 ng/mL
[2]; 1.77 mg/kg Oxymorphone HCl oral, rat, 1 h, hydrochloride
  Plasma oxymorphone, individual rats: 0.545 ng/mL and 1.557 ng/mL and 1.110 ng/mL
[2]; 1.77 mg/kg Oxymorphone HCl oral, rat, 2 h, hydrochloride
  Plasma oxymorphone, individual rats: 0.728 ng/mL and 1.826 ng/mL and 0.621 ng/mL
[2]; 1.77 mg/kg Oxymorphone HCl oral, rat, 3 h, hydrochloride
  Plasma oxymorphone, individual rats: 0.676 ng/mL and BQL (BQL: <0.200 ng/mL)
[2]; 1.77 mg/kg Oxymorphone HCl oral, rat, 4 h, hydrochloride
  Plasma oxymorphone, individual rats: 0.429 ng/mL and BQL (BQL: <0.200 ng/mL)
[2]; 1.77 mg/kg Oxymorphone HCl oral, rat, 6 h, hydrochloride
  Plasma oxymorphone, individual rats: BQL (BQL: <0.200 ng/mL)
[2]; [4]
  Cmax of plasma oxymorphone, individual rats: 0.728 ng/mL and 1.826 ng/mL and 1.144 ng/mL
  Tmax of plasma oxymorphone, individual rats: 2.00 h (2×) and 0.25 h
[2]; 3.54 mg/kg Oxymorphone HCl oral, rat, 0.25 h, hydrochloride
  Plasma oxymorphone, individual rats: 4.958 ng/mL and 3.246 ng/mL and 1.767 ng/mL
[2]; 3.54 mg/kg Oxymorphone HCl oral, rat, 0.5 h, hydrochloride
  Plasma oxymorphone, individual rats: 4.716 ng/mL and 2.469 ng/mL and 2.095 ng/mL
[2]; 3.54 mg/kg Oxymorphone HCl oral, rat, 1 h, hydrochloride
  Plasma oxymorphone, individual rats: 3.423 ng/mL and 2.146 ng/mL and 0.913 ng/mL
[2]; 3.54 mg/kg Oxymorphone HCl oral, rat, 2 h, hydrochloride
  Plasma oxymorphone, individual rats: 2.434 ng/mL and 1.639 ng/mL
[2]; 3.54 mg/kg Oxymorphone HCl oral, rat, 3 h, hydrochloride
  Plasma oxymorphone, individual rats: 0.577 ng/mL and 1.635 ng/mL and 1.276 ng/mL
[2]; 3.54 mg/kg Oxymorphone HCl oral, rat, 4 h, hydrochloride
  Plasma oxymorphone, individual rats: 0.545 ng/mL and 0.618 ng/mL
[2]; 3.54 mg/kg Oxymorphone HCl oral, rat, 6 h, hydrochloride
  Plasma oxymorphone, individual rats: 0.796 ng/mL and 0.774 ng/mL
[2]; male, Sprague Dawley, rat, plasma, 1.77 mg/kg, Mean, 1.77 mg/kg Oxymorphone HCl oral, 0.25 h
  concentration at 0.25 h: 0.795 ng/mL
[2]; male, Sprague Dawley, rat, plasma, 1.77 mg/kg, Mean, 1.77 mg/kg Oxymorphone HCl oral, 0.5 h
  concentration at 0.5 h: 0.689 ng/mL
[2]; male, Sprague Dawley, rat, plasma, 1.77 mg/kg, Mean, 1.77 mg/kg Oxymorphone HCl oral, 1 h
  concentration at 1 h: 1.07 ng/mL
[2]; male, Sprague Dawley, rat, plasma, 1.77 mg/kg, Mean, 1.77 mg/kg Oxymorphone HCl oral, 2 h
  concentration at 2 h: 1.06 ng/mL
[2]; male, Sprague Dawley, rat, plasma, 1.77 mg/kg, Mean, 1.77 mg/kg Oxymorphone HCl oral, 3 h
  concentration at 3 h: 0.378 ng/mL
[2]; male, Sprague Dawley, rat, plasma, 1.77 mg/kg, Mean, 1.77 mg/kg Oxymorphone HCl oral, 4 h
  concentration at 4 h: 0.312 ng/mL
[2]; male, Sprague Dawley, rat, plasma, 1.77 mg/kg, Mean, 1.77 mg/kg Oxymorphone HCl oral, 6 h
  concentration at 6 h: 0.6 ng/mL
[2]; male, Sprague Dawley, rat, plasma, 1.77 mg/kg, individual rats, 1.77 mg/kg Oxymorphone HCl oral, 3 h
  concentration at 3 h: 0.457 ng/mL
[2]; male, Sprague Dawley, rat, plasma, 1.77 mg/kg, individual rats, 1.77 mg/kg Oxymorphone HCl oral, 4 h
  concentration at 4 h: 0.508 ng/mL
[2]; male, Sprague Dawley, rat, plasma, 1.77 mg/kg, individual rats, 1.77 mg/kg Oxymorphone HCl oral, 6 h
  concentration at 6 h: 1.8 ng/mL
[2]; male, Sprague Dawley, rat, plasma, 3.54 mg/kg, Mean, 3.54 mg/kg Oxymorphone HCl oral, 0.25 h
  concentration at 0.25 h: 3.32 ng/mL
[2]; male, Sprague Dawley, rat, plasma, 3.54 mg/kg, Mean, 3.54 mg/kg Oxymorphone HCl oral, 0.5 h
  concentration at 0.5 h: 3.09 ng/mL
[2]; male, Sprague Dawley, rat, plasma, 3.54 mg/kg, Mean, 3.54 mg/kg Oxymorphone HCl oral, 1 h
  concentration at 1 h: 2.16 ng/mL
[2]; male, Sprague Dawley, rat, plasma, 3.54 mg/kg, Mean, 3.54 mg/kg Oxymorphone HCl oral, 2 h
  concentration at 2 h: 1.78 ng/mL
[2]; male, Sprague Dawley, rat, plasma, 3.54 mg/kg, Mean, 3.54 mg/kg Oxymorphone HCl oral, 3 h
  concentration at 3 h: 1.16 ng/mL
[2]; male, Sprague Dawley, rat, plasma, 3.54 mg/kg, Mean, 3.54 mg/kg Oxymorphone HCl oral, 4 h
  concentration at 4 h: 0.499 ng/mL
[2]; male, Sprague Dawley, rat, plasma, 3.54 mg/kg, Mean, 3.54 mg/kg Oxymorphone HCl oral, 6 h
  concentration at 6 h: 0.674 ng/mL
[2]; male, Sprague Dawley, rat, plasma, 3.54 mg/kg, individual rats, 3.54 mg/kg Oxymorphone HCl oral, 2 h
  concentration at 2 h: 1.27 ng/mL
[2]; male, Sprague Dawley, rat, plasma, 3.54 mg/kg, individual rats, 3.54 mg/kg Oxymorphone HCl oral, 4 h
  concentration at 4 h: 0.335 ng/mL
[2]; male, Sprague Dawley, rat, plasma, 3.54 mg/kg, individual rats, 3.54 mg/kg Oxymorphone HCl oral, 6 h
  concentration at 6 h: 0.453 ng/mL
[2]; male, Sprague Dawley, rat, plasma, po, 1.77 mg/kg, Cmax of plasma oxymorphone, Mean, 1.77 mg/kg Oxymorphone HCl oral
  Cmax: 1.23 ng/mL
[2]; male, Sprague Dawley, rat, plasma, po, 1.77 mg/kg, Tmax of plasma oxymorphone, Mean, 1.77 mg/kg Oxymorphone HCl oral
  Tmax: 1.42 h

## CN1CC[C@]23c4c5ccc(O)c4O[C@H]2C(OC(=O)[C@@H](O)c2ccccc2)=CC[C@@]3(O)[C@H]1C5.Cl [Oxymorphone Mandelate]
[3]
  Solubility of test article in dosing formulation: (not completely soluble)

## CCCCCCCC/C=C\CCCCCCCC(=O)OC1=CC[C@@]2(O)[C@H]3Cc4ccc(O)c5c4[C@@]2(CCN3C)[C@H]1O5 [Oxymorphone Oleate, trifluoroacetic acid salt]
[2]; 7.12 mg/kg oral, Ex No. B3, rat, 0.25 h, trifluoroacetic acid salt
  Plasma oxymorphone, individual rats: BQL (BQL: <0.200 ng/mL)
[2]; 7.12 mg/kg oral, Ex No. B3, rat, 0.5 h, trifluoroacetic acid salt
  Plasma oxymorphone, individual rats: BQL (BQL: <0.200 ng/mL)
[2]; 7.12 mg/kg oral, Ex No. B3, rat, 2 h, trifluoroacetic acid salt
  Plasma oxymorphone, individual rats: BQL (BQL: <0.200 ng/mL)
